Data from publication PMC8070447, “Facile Synthesis and In Vitro Activity of N-Substituted 1,2-Benzisothiazol-3(2H)-ones against Dengue Virus NS2BNS3 Protease” (Pathogens, 2021).
Entries after “also recorded” stand apart in the source; their conditions may differ. Like-named read-outs stand apart in the source and are kept apart here.

Experiments:
[1] = target: recombinant DENV2 NS2BNS3 protease (Dengue virus type 2, UniProt P29990); assay: DENV2 NS2BNS3 protease inhibition assay (fluorogenic Bz-Nle-Lys-Arg-Arg-AMC substrate); format: biochemical; details: for inhibition at 50 µM: single dose 50 μM BIT, 100 nM protease
recombinant DENV2 NS2BNS3 protease, sequence (P29990 1398-1437): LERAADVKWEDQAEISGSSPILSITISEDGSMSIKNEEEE
recombinant DENV2 NS2BNS3 protease, sequence (P29990 1476-1653): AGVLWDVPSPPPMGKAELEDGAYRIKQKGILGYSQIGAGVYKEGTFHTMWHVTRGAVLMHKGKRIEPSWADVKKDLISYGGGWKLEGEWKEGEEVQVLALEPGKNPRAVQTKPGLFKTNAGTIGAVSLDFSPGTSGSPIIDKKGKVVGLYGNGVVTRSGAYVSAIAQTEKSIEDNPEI
Experimental: The DENV NS2BNS3 activity inhibition assays were conducted in a 96-well plate containing 100 μL total reaction mixture. […] The reaction, in triplicates, was initiated by the addition of 100 nM DENV2 NS2B-NS3, and the release of fluorogenic AMC was measured at 60 s intervals using a spectrofluorometer for a maximum reaction time of 30 min. A solvent (DMSO) control was run for each assay plate by measuring the activity of DENV NS2BNS3 in the absence of BITs (DMSO control). The effect of background fluorescence was measured by preparing a calibration curve, which in turn was obtained by spiking known concentrations of free AMC in the same volume of the reaction mixtures containing the buffer, enzyme and compounds, and comparing the slope of this curve with that obtained using free AMC concentrations in reaction mixtures containing the buffer, enzyme, no compound and no substrate. The percentage of inhibition was calculated using the measurement of the initial rates of reaction in the presence (vexp) , or absence (vpro) of BIT according to the following formula: Inhibition (%)= 100−(vexp/vpro×100).
For the dose–response experiments, the assays were conducted as described above in the presence of threefold serial dilutions of BITs, ranging from 0.076–500 μM concentrations in DMSO. The final concentration of DMSO in each reaction mixture was less than 5%. IC50 values were obtained by plotting the residual activity of the DENV protease vs. log of the concentration of BITs by using GraphPad Prism v.7 software (San Diego, CA USA). For the positive control, aprotinin was used in a 5 μM concentration. All experiments were conducted in triplicates.
The synthesised BITs were tested for their inhibitory activity against the DENV2 NS2B/NS3 protease assay using the previously reported 96-well plate method. […] A reduction in the cleavage of the […] (AMC) measured in terms of the reduction of fluorescence was deemed to show inhibition of the protease and is reported as a percentage inhibition compared with the solvents’ control reaction. […] Aprotinine was used as the positive control, as described previously.
A threefold serial dilution of the selected BITs, ranging from 150 μM to about 200 nM, were screened in triplicate experiments, as described above. The kinetic data were obtained and the protease’s residual activities in the presence of the tested BITs were inserted into the dose–response model rooted in the GraphPad Prism software (version 7.0).
Figure 3 Inhibition and dose–response of DENV NS2BNS3 protease against the BITs. (A) A concentration of 50 μM BITs was incubated in the presence of 100 nM recombinant DENV2 NS2BNS3 protease and 5 µM tetrapeptide-AMC substrate in a Tris buffer at pH 9.5. The time-dependent release of fluorescent AMC tag was measured for 30 min and compared with the solvent control (−). […] Aprotinine (5 µM) was used as a positive control. Each bar represents a mean value of three replicates. […] The dashed horizontal line indicates the 50% activity level.

[2] = system: DENV2; assay: DENV replication assay, viral RNA in supernatant by RT-qPCR; format: cell-based, DENV2 in Vero cells; details: 30 μM, Vero cells pre-incubated 1 h, supernatant after two days
Experimental: Based on the manufacturer’s manual, viral RNA was isolated from 200 µL cell culture supernatants using the Roche HP Viral Nucleic Acid Kit (Roche, Mannheim, Germany). Relative viral genome copy numbers were determined using 5 µL of the eluted RNA and RT-qPCR using the LightMix® Modular Dengue kit (TIB MOLBIOL, Germany) in combination with the LightCycler RNA Process Control Kit (Roche, Mannheim, Germany). All reactions were performed in triplicates on Roche LightCycler96 or Roche LightCycler480 II qPCR machines (Roche, Mannheim, Germany). The relative RNA concentration was determined using an RNA standard curve and the respective cycler software. The quality of the RT-qPCRs was ensured by following the Minimum Information for Publication of Quantitative […] Experiments guidelines, i.e., the recursion coefficient of the relative standard curve (r^2) was >0.95, and the triplicate assays with a standard deviation of >0.5 were excluded from the analyses. The resulting genome copy numbers were expressed as genome copies per millilitre of the cell culture supernatants. The statistical significance of the reduction in viral titres was calculated using Student’s t-test by comparing the viral load of a single compound with the DMSO control.
The BITs were tested for cytotoxicity in the Vero cells before their evaluation in cell culture assays (Figure S1). […] The BITs showing weaker DENV2 NS2BNS3 protease activity in the biochemical assay were excluded in the in vitro evaluations. […] All infections were performed in triplicate. After two days, the cellular supernatants were collected and the viral RNAs were isolated and quantified using real-time quantitative polymerase chain reaction (RT-qPCR).
(§1) (A) Vero cells were infected with DENV2 and incubated in the presence of the compounds. After incubation, viral RNA was isolated and quantified using RT-qPCR. (B) Viral infectivity of the compounds 5m and 5n was determined using immunofluorescence (IF) staining.

[3] = system: DENV2; assay: Viral infectivity by immunofluorescence staining of Vero cells infected with supernatants; format: cell-based, DENV2 in Vero cells
Experimental: The inhibition of viral replication was analysed using immunofluorescence staining. Vero cells were preincubated with selected BITs at 30 μM. The cells were subsequently infected with DENV-2 (multiplicity of infection (MOI) of 0.5). Cellular supernatants were collected after 2 days, centrifuged at 2000 rpm for 5 min to remove the detached cells, and titrated on Vero cells. These cells were fixed with 4% paraformaldehyde 3 days after infection. We performed immunofluorescence staining to visualise the infected cells with monoclonal anti-DENV-2 E antibodies. Bound antibodies were detected with a Cy3-conjugated donkey anti-mouse antibody (Dianova, Hamburg, Germany) (1:500). Stained infected cells were counted using a fluorescence microscope, and the viral titres were calculated. The experiment was performed in triplicates. The statistical significance of the reduction of infected cells was calculated using Student’s t-test by comparing numbers of infected cells incubated with a compound with the DMSO control.
To further analyse whether the compounds 5m and 5n suppressed the viral gene infectivity, Vero cells were pretreated with the compounds and subsequently infected with DENV2 for two days. Cellular supernatants were uses to infect the Vero cells. After two additional days, the infected cells were visualised using immunofluorescence with anti-DENV antibodies. The stained cells were counted (Figure 5).
as §1

[4] = Vero cells pretreated, DENV2, immunofluorescence

| Compound | IC50 [1] [µM] | inhibition at 50 µM [1] [%] | melting point [°C] | suppression of DENV replication (viral RNA, RT-qPCR) [2] | other results |
| --- | --- | --- | --- | --- | --- |
| O=c1c2ccccc2sn1-c1ccc(Br)cc1 [Compound 5k, 2-(4-Bromophenyl)benzo[d]isothiazol-3(2H)] | 8.24 ± 1.16 | 80 | 138 to 140 | – | – |
| O=c1c2ccccc2sn1-c1c(Cl)cccc1Cl [Compound 5n, 2-(2,6-Dichlorophenyl)benzo[d]isothiazol-3(2H)-one] | 5.28 ± 1.89 | > 90 | 188 to 190 | able to suppress DENV replication at a significant level | suppression of DENV replication (viral RNA, RT-qPCR) ([2]; listed as 2-(2,6-dichlorophenyl)benzo[d]isothiazol-3(2H)-one): could suppress DENV replication; reduction of viral infectivity (in words) [3, 4]: about sixfold; reduction of viral infectivity (in words) ([3]; Vero cells pretreated, DENV2, immunofluorescence, listed as 2-(2,6-dichlorophenyl)benzo[d]isothiazol-3(2H)-one): could suppress DENV replication and virus infectivity |
| Cc1cc([N+](=O)[O-])ccc1-n1sc2ccccc2c1=O [Compound 5j, 2-(2-Methyl-4-nitrophenyl)benzo[d]isothiazol-3(2H)-one] | 2.56 ± 1.03 | > 90 | 135 to 138 | did not show any activity against DENV2 | – |
| O=c1c2ccccc2sn1-c1ccc([N+](=O)[O-])cc1 [Compound 5i, 2-(4-Nitrophenyl)benzo[d]isothiazol-3(2H)-one] | – | – | 126 to 129 | – | – |
| O=c1c2ccccc2sn1-c1ccccc1[N+](=O)[O-] [Compound 5h, 2-(2-Nitrophenyl)benzo[d]isothiazol-3(2H)-one] | 41.8 ± 1.17 | ~70 | 199 to 200 | – | – |
| CCCCc1ccc(-n2sc3ccccc3c2=O)cc1 [Compound 5g, 2-(4-Butylphenyl)benzo[d]isothiazol-3(2H)-one] | – | – | 168 to 172 | – | – |
| O=c1c2ccccc2sn1-c1ccccc1O [Compound 5l, 2-(2-Hydroxyphenyl)benzo[d]isothiazol-3(2H)-one] | 6.66 ± 2.17 | ≥ 90 | 198 to 200 | – | – |
| O=c1c2ccccc2sn1-c1ccccc1Cl [Compound 5m, 2-(2-Chlorophenyl)benzo[d]isothiazol-3(2H)-one] | 2.01 ± 0.98 | > 90 | – | able to suppress DENV replication at a significant level; also recorded: inhibited DENV replication | suppression of DENV replication (viral RNA, RT-qPCR) ([2]; listed as 2-(2-chlorophenyl)benzo[d]isothiazol-3(2H)-one): could suppress DENV replication; reduction of viral infectivity [3]: 1 log value; reduction of viral infectivity [3, 4]: 1.4 orders of magnitude; reduction of viral infectivity (in words) [3, 4]: inhibited DENV replication and viral infectivity; reduction of viral infectivity (in words) ([3]; Vero cells pretreated, DENV2, immunofluorescence, listed as 2-(2-chlorophenyl)benzo[d]isothiazol-3(2H)-one): could suppress DENV replication and virus infectivity |
| COc1ccc(-n2sc3ccccc3c2=O)cc1 [Compound 5o, 2-(4-Methoxyphenyl)benzo[d]isothiazol-3(2H)-one] | 26.5 ± 4.32 | 58 | – | – | – |
